Test results: US20070117182A1, “Nucleic acids conferring transcriptional responsiveness on the RANKL gene promoter and uses thereof” (Wisconsin Alumni Research Foundation, priority 2005, published 2007)

How the values were obtained:
Cyp24 = assay: RT-PCR of Cyp24 control gene in treated ST2 cells; assay type: cell-based, mouse; conditions: up to 24 hours
Protocol: (§1) FIG. 2. Induction of RANKL in ST2 cells by hormones and cytokines. ST2 cells were treated with the agents indicated for periods up to 24 hours. Total RNA was isolated and subjected to RT-PCR using a primer set to mouse RANKL and beta-actin. Positive vitamin D target control genes include Cyp24 and osteopontin (OPN).
(§2) The inventors first established a model in which RANKL is both induced in response to 1,25(OH)2D3, PTH (forskolin) and oncostatin M (OSM), and is capable of supporting osteoclast formation when co-cultured with bone marrow monocyte- or spleen cell-derived osteoclast precursors. While a number of cell types express RANKL and induce osteoclastogenesis, the historical literature strongly supports mouse ST2 cells in this capacity, prompting the inventors to focus on this stromal/preosteoblastic line for initial studies. […] Each of these components is known to both induce RANKL expression and promote osteoclast formation as well. […] Indeed, GC effects are widely observed. […] The ability of GCs to enhance osteoclast formation in coculture assays in the presence of 1,25(OH)2D3, however, is likely due also to its coordinate ability to suppress OPG.

[1] = test system: mouse D5 region (TK-mRLD5); assay: TK-mRLD5 luciferase reporter in MG-63 cells; assay type: cell-based; conditions: 24 hours
[2] = test system: D5 region of the RANKL gene (RL-CCL); assay: pTK-RL(D5) luciferase reporter in ST2 cells; assay type: cell-based, mouse; conditions: 24 hours, agent alone
Protocol: FIG. 6. Transcriptional activity of the D5 regions of the RANKL gene in the context of the TK promoter. Sequence surrounding the D5 region (1072 bp) was cloned into the pTK-luciferase vector and termed pTK-RL(D5). […] Cells were harvested after 24 hours and luciferase activity assessed. B) ST2 cells were transfected as in A above but without the VDR expression vector and evaluated as in A. C) COS-7 cells were transfected and evaluated as in A above. Luciferase was normalized using beta-gal activity. Data represent the mean of triplicate determinations (SEM). The pTK-luc control vector was unresponsive to any of the inducers (see FIG. 9). *, p<0.05 vs no treatment control.
FIG. 11. […] A) Coordinates of the RL-D5 and the RL-D5b regions in the mouse RANKL upstream region. ST2 cells were transfected with either B) pTK-luc or pTK-mRL-D5 or C) pTK-luc and pTK-mRL-D5b and then treated with the indicated inducers. Cells were harvested after 24 hours and evaluated for luciferase activity. Luciferase was normalized using β-gal activity. Data represent the mean of triplicate determinations (SEM). *, p<0.05 vs no treatment control. **, p<0.05 vs no treatment and 1,25(OH)2D3 treated controls.
The activity of an enhancer must be evaluated in the context of its local environment, preferentially in the context of both other enhancers and its native promoter. In the case of the RANKL gene, however, this is clearly not possible due to the numbers and the distant locations of the potential regulatory regions. To tackle this problem, the inventors isolated approximately 800 to 1100 bp fragments of each region (D1 to D5) as identified through the ChIP/Chip analysis, cloned each into a luciferase expression vector under the control of a viral thymidine kinase (TK) minimal promoter, and explored the 1,25(OH)2D3- and GC-inducible activity of each following transfection into ST2 cells. […] Nevertheless, positive results provide added support for the potential regulatory capabilities of an individual DNA fragment even when examined in isolation. […] This induction was magnified by the addition of a VDR expression vector (FIG. 6a), but was also evident in the absence of such addition (FIG. 6b). […] To ensure that the viral TK promoter background was not contributing to our evaluation, the inventors cloned the mouse RANKL promoter (−100 to +65) into pGL3, inserted RL D5 and evaluated its activity in ST2 cells as well.
Based upon the above data, the inventors explored the possibility that similar to 1,25(OH)2D3, forskolin, PGE2 and OSM might be capable of activating transcription via the D5 fragment of the RANKL gene. […] Cells were harvested 24 hours later and evaluated for luciferase activity as in the previous experiments. […]

osteopontin (OPN) = assay: RT-PCR of osteopontin control gene in treated ST2 cells; assay type: cell-based, mouse; conditions: up to 24 hours
Protocol: as §1, §2

mouse RANKL VDRE = assay: RANKL VDRE in TK promoter, luciferase reporter in ST2 cells; assay type: cell-based
Text: FIG. 8. The mouse RANKL VDRE is inducible by 1,25(OH)2D3. The mouse RANKL VDRE (sequence seen in FIG. 7) was cloned into the TK promoter, transfected into ST2 cells and evaluated for transcriptional regulation by 1,25(OH)2D3. A 10 to 15-fold induction mediated by the RL VDRE is observed. A similar induction is observed in the context of the RL minimal promoter. Data are the average of triplicate determinations, SEM.
ChIP data are of inherent low resolution, making it difficult to identify the specific sequence to which the VDR/RXR heterodimer binds within the RL-CCL. 1,25(OH)2D3-inducibility of the RL-CCL DNA fragment, however, provides the opportunity to precisely map the location of the VDRE using mutagenesis. The inventors therefore subjected the RL-CCL DNA fragment to 5′ deletion analysis using PCR and prepared a series of fragments of the RL-CCL with increasingly fore-shortened 5′ termini as illustrated in FIG. 7a. These RANKL gene fragments were similarly cloned into the pTK-luc vector and their activities together with the wildtype D5 fragment examined in response to 1,25(OH)2D3, glucocorticoids and the combination following transfection into ST2 cells. […] As well, this region of the RL-CCL also contains a number of consensus GR binding half-sites, and at least one consensus GRE duplex site.

D5 fragment in MC-3T3-E1 = assay: pRL-D5/TK-luc reporter in MC-3T3-E1 cells; assay type: cell-based; conditions: osteoblast mouse cell line MC-3T3-E1, which does not produce RANKL
minimal RANKL promoter = assay: Mouse RANKL minimal promoter (-100 to +65) in pGL3, ST2 cells; assay type: cell-based; conditions: pGL3, without D5 insert
Text: FIG. 9. The mouse RANKL D5 region is active in the context of the mouse RANKL gene minimal promoter. Mouse RL D5 was inserted upstream of a mouse RANKL gene promoter fragment (−100 to +65) in pGL3 and its inducible activity assessed in ST2 cells. […] Data are the average of triplicate determinations, SEM.
The activity of an enhancer must be evaluated in the context of its local environment, preferentially in the context of both other enhancers and its native promoter. In the case of the RANKL gene, however, this is clearly not possible due to the numbers and the distant locations of the potential regulatory regions. To tackle this problem, the inventors isolated approximately 800 to 1100 bp fragments of each region (D1 to D5) as identified through the ChIP/Chip analysis, cloned each into a luciferase expression vector under the control of a viral thymidine kinase (TK) minimal promoter, and explored the 1,25(OH)2D3- and GC-inducible activity of each following transfection into ST2 cells. […] Nevertheless, positive results provide added support for the potential regulatory capabilities of an individual DNA fragment even when examined in isolation. […] To ensure that the viral TK promoter background was not contributing to our evaluation, the inventors cloned the mouse RANKL promoter (−100 to +65) into pGL3, inserted RL D5 and evaluated its activity in ST2 cells as well.

Structure (SMILES): C=C1/C(=C\C=C2/CCC[C@]3(C)[C@@H]([C@H](C)CCCC(C)(C)O)CC[C@@H]23)C[C@@H](O)C[C@@H]1O [1,25(OH)2D3]
- Cyp24 induction (Cyp24): induced in a time-dependent manner
- activity of mouse D5 region [1]: induces
- luciferase activity via D5 (RL-CCL), TK promoter [2]: typical and rather striking dose response
- osteopontin (OPN) induction (osteopontin (OPN)): induced in a time-dependent manner
- induction mediated by the RL VDRE (mouse RANKL VDRE): 10 to 15 fold
- stimulation via the D5 fragment in MC-3T3-E1 (D5 fragment in MC-3T3-E1): failed to stimulate
- response of minimal RANKL promoter (minimal RANKL promoter): unresponsive
